One experiment concerns APP holoprotein. The experiment is described as follows: Cell-associated APP holoprotein in cultured astrocytes (Western blot). In kind it is cell-based, rat. Details: basal APPh levels (compound by itself): unit of the concentration uncertain. The procedure:
(§1) Astrocytes are isolated from cortices from postnatal rats by methods standard in the art. In brief, dissected cortices are dissociated by trypsinization and trituration through a flame-polished Pasteur pipette. Cells are plated onto poly-L-lysine coated 35- or 100 mm culture dishes at densities of about 10-25 cells/mm^2. The initial culture media, minimal essential medium (MEM, Gibco) containing 10% horse serum (BioWhittaker), are aspirated after 2-5 h after plating to remove unattached cells and debris, and replaced with MEM containing 7.5% fetal bovine serum (FBS, BioWhittaker). Half the media is replaced with MEM/7.5% FBS twice weekly. Cells are kept at 37° C. in a humidified 5% CO2/95% air incubator. Media are changed twice weekly. […] Pharmacological manipulations are performed in serum-free media on 7-14 DIV confluent astrocytes.
To detect cell-associated proteins (APP or GFAP), astrocytes from 35 mm dishes are scraped into lysis buffer (60 mm Tris/HCl, 4% SDS, 20% glycerol, 1 mm dithiothreitol), ultrasonicated and boiled for […]. The total amount of cell protein per dish, estimated using the bicinchoninic acid assay, is not altered by pharmacological treatments. Bromphenol blue (0.1%) is added to each sample and equal amounts of protein ([…]) are loaded on 10% SDS polyacrylamide gels.
The amount of media or cell protein loaded for sodium dodecyl sulfate-polyacrylamide gel electrophoresis (10-20% SDS PAGE; Bio-Rad) is normalized for the amount of protein per sample. Proteins (equivalent to 100 μg cell protein/lane) are separated by electrophoresis, electroblotted onto polyvinylidene difluoride membranes (Immobilon-P, Millipore) and blocked in Tris-buffered saline with 0.15% Tween 20 (TEST) containing 5% powdered milk for 30 min. After 2×10 mm rinses in TBST, the membranes are incubated in TEST containing an appropriate antibody. Monoclonal antibodies 22C11 and GFAP (both from Boehringer Mannheim) are used to detect the N-terminus of APP and glial fibrillary acidic protein respectively; antisera R37 and R98 (gifts of Dr. F. Kametani, Tokyo Institute of Psychiatry) are used to detected the C-terminus and KPI motifs of APP respectively; antiserum C8 (gift of Dr. D. Selkoe, Women's Hospital, Harvard Medical School, Cambridge, Mass.) is used to detect the C-terminus of APP.
After an overnight incubation, membranes are rinsed in TBST then treated for 1 h with a peroxidase-linked secondary antibody. After several rinses in TEST, protein bands are visualized on Kodak X-AR films by an enhanced chemiluminescence method (Amersham). Optical densities of the protein bands are quantitated by laser scanning densitometry (LICE, Bromma, Sweden), and normalized to the densities of those bands generated under control conditions.
Measurements of cellular and secreted proteins, or of mRNA in treatment groups are normalized against those of control groups which are prepared in parallel and loaded onto the same blot. Analysis of variance (ANOVA) and t-tests are used to evaluate differences between groups (significance level, p=0.05), using drug treatments as the independent variable.

A further experiment deals with cAMP. The experiment is described as follows: PGE2-induced cAMP increases in 10-day old rat cortical neurons. Conditions: for effect on PGE2-stimulated cAMP levels: cortical neurons; for effect on basal cAMP levels: no PGE2, cortical neurons. Details: effect on basal cAMP levels: unit of the concentration uncertain. In kind it is cell-based. The procedure:
FIG. 5. Effect of Cannabinoids on Prostaglandin E2-Induced cAMP Increases in 10-Day Old Rat Cortical Neurons.
Levels of cyclic AMP are measured with an [8-^3H]-cAMP assay kit (Amersham TRK 432) in astrocytes grown on 35 mm dishes. In brief, after aspirating the medium and rinsing twice with 1 ml ice cold PBS, the cells are scraped in 0.8 mL ice cold ethanol and sonicated. The cell suspension is incubated for […] at room temperature, centrifuged and the supernatant is dried in a rotary evaporator. After resuspension in 120 μL Tris/EDTA buffer, two duplicate samples of 50 μl each are mixed with the binding protein, [8-^3H] adenosine 3′,5′-cyclic phosphate tracer and incubated at 2-4° C. for 2 h. A charcoal suspension (100 μL) is added to the samples before centrifugation and 200 μL of the supernatant is removed for scintillation counting. The amount of cyclic AMP (pmol/mg protein) is estimated by comparing to known standards, and normalized to the amounts of whole cell protein as determined by the bicinchoninic acid assay (Sigma).
Referring now to FIG. 5, cell cultures of 10-day old cortical neurons are used to assess the affect of anandamide (50 M), methanandamide (10 M), and 2-AG (50 M) on PGE2-stimulated cAMP levels. PGE2 (50 M) is found to elevate cAMP levels about 1.6-fold over basal (control).
On the technique in general: Changes in cAMP serve as a functional read-out for many G protein-coupled receptors.

The next experiment has as its system APP mRNA. Briefly: APP mRNA levels in cultured astrocytes (Northern blot). To be noted: 1, 10 or 100 μM, 24 h. The experiment is classed as cell-based, rat. On the procedure: as §1
Total RNA from astrocytes grown on 100 mm dishes is extracted by the acid guanidium thiocyanate-phenol chloroform method. […] The levels of APP mRNA are normalized to the amounts of G3PDH mRNA and expressed as a ratio to the levels of untreated, control cells.
Confluent monolayers of astrocytes prepared according to Example 8.1 are treated with serum-free media containing 50, 100, or 250 μM 8Br-cAMP for varying durations (1 h, 6 h, 12 h, or 24 h). Levels of cAMP in astrocytes are measured with a [8-^3H]-cAMP assay kit (Amersham TRK 432).

Another experiment concerns soluble APP (APPs). The experiment is described as follows: Secreted soluble APP in astrocyte culture media (Western blot). In kind it is cell-based, rat. To be noted: astrocytes. The procedure:
as §1
To detect secreted APP, culture media is collected after drug treatments and phenylmethylsulfonyl fluoride is added to a final concentration of 2 mM. The media samples are then applied to Sephadex PD-b desalting columns (Pharmacia) and eluted with distilled water. […]
The amount of media or cell protein loaded for sodium dodecyl sulfate-polyacrylamide gel electrophoresis (10-20% SDS PAGE; Bio-Rad) is normalized for the amount of protein per sample. […] Monoclonal antibodies 22C11 and GFAP (both from Boehringer Mannheim) are used to detect the N-terminus of APP and glial fibrillary acidic protein respectively; antisera R37 and R98 (gifts of Dr. F. Kametani, Tokyo Institute of Psychiatry) are used to detected the C-terminus and KPI motifs of APP respectively; antiserum C8 (gift of Dr. D. Selkoe, Women's Hospital, Harvard Medical School, Cambridge, Mass.) is used to detect the C-terminus of APP.
After an overnight incubation, membranes are rinsed in TBST then treated for 1 h with a peroxidase-linked secondary antibody. […] Optical densities of the protein bands are quantitated by laser scanning densitometry (LICE, Bromma, Sweden), and normalized to the densities of those bands generated under control conditions. […]

In the next experiment the test system is Abeta. The experiment is described as follows: Total Abeta media concentration in CHO cells transfected with human APP gene construct. The experiment is classed as cell-based, Chinese Hamster. Details: unit of the concentration uncertain. The text has this:
FIG. 3. Effect of Varying Concentrations of Resveratrol on Total Abeta Media Concentration in CHO Cells Transfected with Human APP Gene Construct at Four Hours.

Structures are written as SMILES.

For `CCCCC/C=C\C/C=C\C/C=C\C/C=C\CCCC(=O)NCCO` [anandamide], in the experiment with APP holoprotein (50 μM anandamide with 50 μM prostaglandin E2, cultured astrocytes), the “increase in APPh levels over control in presence of PGE2” value was “about 55%”. For the same molecule, in the experiment on APP holoprotein (50 µM, without PGE2, cultured astrocytes), the “basal APPh levels (compound by itself)” value was “reduce APPh levels below control values”. For the same molecule, the “effect on PGE2-stimulated cAMP levels” value in the experiment on cAMP (50 µM with PGE2 50 M) was “suppress the PGE2-induced stimulation”. Moreover, in the experiment on cAMP (50 (unit uncertain)), the “effect on basal cAMP levels” value is reported as “no effect on basal levels”.
Turning to `CCCCC[C@H](O)/C=C/[C@H]1[C@H](O)CC(=O)[C@@H]1C/C=C\CCCC(=O)O` [PGE2, prostaglandin E2], the “amounts of astrocytic APP mRNA (4.5 kb) relative to untreated cells” value with APP mRNA was “significantly increases”. In addition, the “increase in APPh levels compared to controls” value with APP holoprotein (50 μM prostaglandin E2 alone, cultured astrocytes, two experiments) is on record as about 75%. In addition, the “increase in APPh levels” value in the experiment with APP holoprotein (PGE2 alone, cultured astrocytes (FIG. 4)) is “three-fold”. Besides, the “APP secreted in the media (110-130 kD)” value in the experiment on soluble APP (APPs) (1, 10 or 100 μM, 24 h) is given as “also increased”. Further, the “cAMP levels over basal (control)” value in the experiment with cAMP (PGE2 50 M alone, 10-day old cortical neurons) is “about 1.6 fold”.
Take `Cc1c(C(=O)c2cccc3ccccc23)c2cccc3c2n1[C@H](CN1CCOCC1)CO3` [WIN55212-2]: the “effect on APPh levels in the absence of PGE2” value in the experiment with APP holoprotein (100 µM, cultured astrocytes) was “no statistically significant effect”. For the same molecule, the “increase in APPh levels with PGE2 stimulation” value in the experiment on APP holoprotein (WIN55212-2 100 M added to PGE2, cultured astrocytes) is reported as “limited to two-fold”.
Turning to `Oc1ccc(C=Cc2cc(O)cc(O)c2)cc1` [resveratrol], the “decrease in APP holoprotein” value in the experiment with APP holoprotein (10 μM (so in the source) and intermediate concentrations, one hour, astrocytes, p<0.05) is listed as “significant decrease”. The “levels of cellular amyloidogenic APP holoprotein” value with APP holoprotein (10 μM and higher, one hour, astrocytes, p<0.05) is “decreased to about half”. The “stimulation of APPs” value in the experiment with soluble APP (APPs) (10 nM and intermediate concentrations, one hour) was “Significant stimulation”. Moreover, in the experiment with soluble APP (APPs) (10 μM and higher, one hour, average of four experiments, p<0.05), the “formation of soluble APP (APPs) over control” value is recorded as “about two-fold over control”. Besides, the “Abeta levels in the media” value with Abeta (100 (unit uncertain), four-hour treatment) is “decrease to about half”; in the experiment on Abeta (lower concentrations (0.1, 1.0, 10 (unit uncertain)), four hours), “not to differ from control”.
`CCCCC/C=C\C/C=C\C/C=C\C/C=C\CCCC(=O)N[C@H](C)CO` [Methanandamide, methanandamide]: the “effect on PGE2-stimulated APPh levels” value in the experiment on APP holoprotein (10 M methanandamide compared with 50 μM anandamide, cultured astrocytes) is reported as “more efficacious than anandamide”. Also, the “effect on basal cAMP levels” value in the experiment on cAMP (10 (unit uncertain)) is on record as “no effect on basal levels”. For the same molecule, the “effect on PGE2-stimulated cAMP levels” value in the experiment on cAMP (10 M with PGE2 50 M) was “inhibit the PGE2-induced increase in cAMP levels”.

The record behind these values is patent publication US20020173549A1, “Compositions and methods for treatment of mild cognitive impairment” (priority 2000, published 2002).
